Measured values published in US20090036440A1, “NOVEL PYRIMIDINE DERIVATIVES - 816” (AstraZeneca AB, priority 2007, published 2009).

What was measured:
recombinant EphB4 = molecular target: T1, recombinant EphB4 (Homo sapiens, UniProt P54760); experiment: In vitro EphB4 enzyme assay (Alphascreen); format: biochemical
T1 construct: recombinant active EphB4 (amino acids 563-987; Swiss-Prot Acc; No. P54760); purchased ProQinase GmbH 0178-0000-3
T1 sequence (P54760 563-987): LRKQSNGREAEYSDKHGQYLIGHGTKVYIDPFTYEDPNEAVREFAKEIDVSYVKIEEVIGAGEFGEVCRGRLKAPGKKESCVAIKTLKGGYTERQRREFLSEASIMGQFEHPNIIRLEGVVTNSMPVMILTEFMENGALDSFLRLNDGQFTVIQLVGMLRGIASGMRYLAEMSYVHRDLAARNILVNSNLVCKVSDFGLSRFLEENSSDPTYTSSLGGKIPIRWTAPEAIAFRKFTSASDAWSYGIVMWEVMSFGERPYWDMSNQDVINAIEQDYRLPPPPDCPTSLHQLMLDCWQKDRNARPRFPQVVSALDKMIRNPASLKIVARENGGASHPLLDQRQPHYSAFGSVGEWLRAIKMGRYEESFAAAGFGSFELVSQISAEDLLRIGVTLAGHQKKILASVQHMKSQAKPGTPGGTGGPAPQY
Experimental: This assay detects inhibitors of EphB4-mediated phosphorylation of a polypeptide substrate using Alphascreen™ luminescence detection technology. Briefly, recombinant EphB4 was incubated with a biotinylated-polypeptide substrate (biotin-poly-GAT) in presence of magnesium-ATP. The reaction was stopped by addition of EDTA, together with streptavidin-coated donor beads which bind the biotin-substrate containing any phosphorylated tyrosine residues. Anti-phosphotyrosine antibodies present on acceptor beads bind to phosphorylated substrate, thus bringing the donor & acceptor beads into close proximity. Subsequent excitation of the donor beads at 680 nm generated singlet oxygen species that interact with a chemiluminescer on the acceptor beads, leading to light emission at 520-620 nm. The signal intensity is directly proportional to the level of substrate phosphorylation and thus inhibition is measured by a decrease in signal.
To ensure that each well contained a total of 120 nl DMSO the wells were all backfilled as required. […] The test range of compounds was 100× the required final concentration.
Assay plates were then incubated at room temperature for 1 hour.
For assays using compounds prepared via acoustic dispensing, the assay mix was adjusted such that the final assay volume of 12 ul contained the same concentration of reagent as 10 ul of assay mix used when aqueous compounds were tested.
The plates were sealed under natural lighting conditions, wrapped in aluminium foil and incubated in the dark for a further 20 hours.
The resulting assay signal was determined on the Perkin Elmer EnVision plate reader. The minimum value was subtracted from all values, and the signal plotted against compound concentration to generate IC50 data. The method used to generate the compound dilutions was recorded with the IC50 value in the database.

human EphB4 = molecular target: T2, human EphB4 (Homo sapiens, UniProt P54760); experiment: In vitro EphB4 cell assay (EphB4 phosphorylation ELISA in EphB4-CHO cells); format: cell-based; settings: ephrin-B2 stimulated EphB4 phosphorylation, read-out: Mean IC50 values obtained using Assay B
T2 construct: to generate full-length EphB4 containing a Myc-His tag at the C-terminus; expressed in transfected cells; EphB4-CHO)
T2 sequence (P54760 16-987): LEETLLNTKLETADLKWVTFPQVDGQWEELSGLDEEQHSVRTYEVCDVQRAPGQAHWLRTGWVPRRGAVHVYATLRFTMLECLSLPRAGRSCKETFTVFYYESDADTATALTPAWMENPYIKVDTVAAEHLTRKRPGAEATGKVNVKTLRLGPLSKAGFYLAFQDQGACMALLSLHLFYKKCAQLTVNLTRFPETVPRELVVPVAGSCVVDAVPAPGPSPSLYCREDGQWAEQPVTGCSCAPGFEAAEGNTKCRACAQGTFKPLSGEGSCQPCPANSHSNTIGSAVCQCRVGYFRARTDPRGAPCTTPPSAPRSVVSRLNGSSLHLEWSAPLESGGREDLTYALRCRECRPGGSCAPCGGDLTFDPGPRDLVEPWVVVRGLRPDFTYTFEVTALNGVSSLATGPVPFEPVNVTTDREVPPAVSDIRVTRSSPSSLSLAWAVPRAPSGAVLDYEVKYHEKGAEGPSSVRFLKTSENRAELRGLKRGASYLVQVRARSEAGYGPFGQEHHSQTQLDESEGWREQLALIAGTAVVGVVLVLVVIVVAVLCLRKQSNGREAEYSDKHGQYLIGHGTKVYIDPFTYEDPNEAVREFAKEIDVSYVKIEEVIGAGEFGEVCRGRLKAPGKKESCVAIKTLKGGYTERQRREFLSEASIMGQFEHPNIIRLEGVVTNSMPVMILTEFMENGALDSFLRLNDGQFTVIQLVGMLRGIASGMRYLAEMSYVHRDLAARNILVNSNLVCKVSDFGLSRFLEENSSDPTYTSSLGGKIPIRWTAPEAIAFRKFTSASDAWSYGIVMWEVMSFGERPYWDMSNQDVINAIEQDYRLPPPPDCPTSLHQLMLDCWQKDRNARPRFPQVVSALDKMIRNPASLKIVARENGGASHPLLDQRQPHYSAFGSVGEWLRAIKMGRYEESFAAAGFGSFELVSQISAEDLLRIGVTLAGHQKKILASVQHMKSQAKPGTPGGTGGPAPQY
Experimental: The assay identifies inhibitors of cellular EphB4 by measuring a decrease in phosphorylation of EphB4 following treatment of cells with compound. The endpoint assay used a sandwich ELISA to detect EphB4 phosphorylation status. Briefly, Myc-tagged EphB4 from treated cell lysate was captured on the ELISA plate via an anti-c-Myc antibody. The phosphorylation status of captured EphB4 was then measured using a generic phosphotyrosine antibody conjugated to HRP via a calorimetric output catalysed by HRP, with level of EphB4 phosphorylation directly proportional to the colour intensity. Absorbance was measured spectrophotometrically at 450 nm.
Full length human EphB4 (Swiss-Prot Acc. No. P54760) was cloned using standard techniques from cDNA prepared from HUVEC using RT-PCR. The cDNA fragment was then sub-cloned into a pcDNA3.1 expression vector containing a Myc-His epitope tag to generate full-length EphB4 containing a Myc-His tag at the C-terminus (Invitrogen Ltd. Paisley, UK). CHO-K1 cells (LGC Promochem, Teddington, Middlesex, UK, Catalogue No. CCL-61) were maintained in HAM's F12 medium (Sigma-Aldrich Company Ltd, Gillingham, Dorset SP8 4XT, Catalogue No. N4888) containing 10% heat-inactivated foetal calf serum (PAA lab GmbH, Pasching, Austria Catalogue No. PAA-A15-043) and 1% glutamax-1 (Invitrogen Ltd., Catalogue No. 35050-038) at 37° C. with 5% CO2. CHO-K1 cells were engineered to stably express the EphB4-Myc-His construct using standard stable transfection techniques, to generate cells hereafter termed EphB4-CHO.
For each assay, 10,000 EphB4-CHO cells were seeded into each well of Costar 96-well tissue-culture plate (Fisher Scientific UK, Loughborough, Leicestershire, UK., Catalogue No. 3598) and cultured overnight in full media. On day 2, the cells were incubated overnight in 90 μl/well of media containing 0.1% Hyclone stripped-serum (Fisher Scientific UK, Catalogue No. SH30068.02). Test compounds were prepared as 10 mM stock solutions in DMSO (Sigma-Aldrich Company Ltd, Gillingham, Dorset SP8 4XT Catalogue No. 154938) and serially diluted with serum-free media to give a range of test concentrations at 10× the required final concentration. A 10 μl aliquot of each compound dilution was transferred to the cell plates in duplicate wells, and the cells incubated for 1 hour at 37° C. Each plate also contained control wells: a maximum signal was created using untreated cells, and minimum signal corresponding to 100% inhibition was created using wells containing a reference compound known to abolish EphB4 activity. […]

[1] = compound preparation: Genesis (aqueous dilution)
[2] = compound preparation: Echo (acoustic dispensing)

Compound CN(c1ccnc(Nc2cc(Cl)cc(N3CCOCC3)n2)n1)c1ccc(F)c(Cl)c1F [Example 1, N′-(3-chloro-2,4-difluoro-phenyl)-N-(4-chloro-6-morpholin-4-yl-pyridin-2-yl)-N′-methyl-pyrimidine-2,4-diamine] has an IC50 (recombinant EphB4; [1]) of 38300 nM and an IC50 (human EphB4) of 354 nM.
Compound Cc1ccc(CO)cc1N(C)c1ccnc(Nc2cc(Cl)nc(N3CCOCC3)c2)n1 [Example 4.3, [3-[[2-[(2-chloro-6-morpholin-4-yl-pyridin-4-yl)amino]pyrimidin-4-yl]-methyl-amino]-4-methyl-phenyl]methanol] has an IC50 (recombinant EphB4; [1]) of 473 nM.
Work on CN(c1ccnc(Nc2cc(Cl)nc(N3CCOCC3)c2)n1)c1ccc(F)c(Cl)c1F [Example 2.3, N′-(3-chloro-2,4-difluoro-phenyl)-N-(2-chloro-6-morpholin-4-yl-pyridin-4-yl)-N′-methyl-pyrimidine-2,4-diamine] yielded an IC50 (recombinant EphB4; [1]) of 1780 nM.
With CN(c1ccnc(Nc2cc(N3CCOCC3)nc(N3CCOCC3)n2)n1)c1ccc(F)c(Cl)c1F [Example 2.4, N′-(3-chloro-2,4-difluoro-phenyl)-N-(2,6-dimorpholin-4-ylpyrimidin-4-yl)-N′-methyl-pyrimidine-2,4-diamine] the IC50 (recombinant EphB4; [1]) was 6270 nM.
Compound CN(c1ccnc(Nc2cc(N3CCOCC3)nc(N3CCOCC3)c2)n1)c1ccc(F)c(Cl)c1F [Example 2.1, N′-(3-chloro-2,4-difluoro-phenyl)-N-(2,6-dimorpholin-4-ylpyridin-4-yl)-N′-methyl-pyrimidine-2,4-diamine] has an IC50 (recombinant EphB4; [1]) of 1120 nM and an IC50 (human EphB4) of 8 nM.
Compound Cc1ccc(CO)cc1N(C)c1ccnc(Nc2cc(Cl)cc(N3CCOCC3)n2)n1 [Example 3, [3-[[2-[(4-chloro-6-morpholin-4-yl-pyridin-2-yl)amino]pyrimidin-4-yl]-methyl-amino]-4-methyl-phenyl]methanol] has an IC50 (recombinant EphB4; [1]) of 198 nM and an IC50 (human EphB4) of 28 nM.
COc1ccc(C)c(N(C)c2ccnc(Nc3cc(N4CCOCC4)nc(N4CCN(C)CC4)c3)n2)c1 [Example 5.1, N4-(5-methoxy-2-methylphenyl)-N4-methyl-N2-(2-(4-methylpiperazin-1-yl)-6-morpholinopyridin-4-yl)pyrimidine-2,4-diamine] gave an IC50 (recombinant EphB4; [2]) of 2.31 nM.
COc1ccc(C)c(N(C)c2ccnc(Nc3cc(N4CCOCC4)nc(N4CCC(O)CC4)c3)n2)c1 [Example 5.2, 1-(4-(4-((5-methoxy-2-methylphenyl)(methyl)amino)pyrimidin-2-ylamino)-6-morpholinopyridin-2-yl)piperidin-4-ol] showed an IC50 (recombinant EphB4; [2]) of 3.25 nM.
With Cc1ccc(CO)cc1N(C)c1ccnc(Nc2cc(N3CCOCC3)cc(N3CCOCC3)n2)n1 [Example 4.2, [3-[[2-[(4,6-dimorpholin-4-ylpyridin-2-yl)amino]pyrimidin-4-yl]-methyl-amino]-4-methyl-phenyl]methanol] the IC50 (recombinant EphB4; [1]) was 456 nM and the IC50 (human EphB4) was 302 nM.
For CN(c1ccnc(Nc2cc(N3CCOCC3)cc(N3CCOCC3)n2)n1)c1ccc(F)c(Cl)c1F [Example 2.2, N′-(3-chloro-2,4-difluoro-phenyl)-N-(4,6-dimorpholin-4-ylpyridin-2-yl)-N′-methyl-pyrimidine-2,4-diamine], the IC50 (recombinant EphB4; [1]) was 808 nM.
